Test results taken from the supplement of paper PMC4862054.

Legend:
Assay in all cases: normalised viability (% of control), CellTiter-Blue; higher = more viable cells (about 100 = DMSO control)
Details in all cases: incubation time: 72 h
[1] = tested on: BT-474
Experimental: (§1)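 DSRT, CellTiter-Blue viability, 72 h incubation. Signal is normalised to DMSO and benzethonium chloride controls. Value is the normalised response at dose 3.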

[2] = tested on: BT-549
Experimental: as §1

[3] = tested on: CAL-120
Experimental: as §1

[4] = tested on: CAL-148
Experimental: as §1

[5] = tested on: CAL-51
Experimental: as §1

[6] = tested on: CAL-85-1
Experimental: as §1

[7] = tested on: DU-4475
Experimental: as §1

[8] = tested on: HCC1143
Experimental: as §1

[9] = tested on: HCC1599
Experimental: as §1

[10] = tested on: HCC1937
Experimental: as §1

[11] = tested on: HDQ-P1
Experimental: as §1

[12] = tested on: Hs578T
Experimental: as §1

[13] = tested on: MDA-MB-231
Experimental: as §1

[14] = tested on: MDA-MB-436
Experimental: as §1

[15] = tested on: MDA-MB-453
Experimental: as §1

[16] = tested on: MDA-MB-468
Experimental: as §1

[17] = tested on: MFM-223
Experimental: as §1

[18] = tested on: SK-BR-3
Experimental: as §1

[19] = tested on: BT-549; remark: listed apart in the source
Procedure, shortened: (§2)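 After 72 h on compound-loaded 384-well plates, breast cancer cell lines received 2.5 µl CellTiter-Blue reagent for 2 h at 37 °C. Fluorescence at 560/590 nm was scaled per plate so that vehicle was 100 and a positive kill control was 0. The value stands for normalised viability at a single listed concentration of the series.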

[20] = tested on: CAL-120; remark: listed apart in the source
Procedure, shortened: as §2

[21] = tested on: CAL-148; remark: listed apart in the source
Procedure, shortened: as §2

[22] = tested on: CAL-51; remark: listed apart in the source
Procedure, shortened: as §2

[23] = tested on: DU-4475; remark: listed apart in the source
Procedure, shortened: as §2

[24] = tested on: HCC1143; remark: listed apart in the source
Procedure, shortened: as §2

[25] = tested on: HCC1599; remark: listed apart in the source
Procedure, shortened: as §2

[26] = tested on: HCC1937; remark: listed apart in the source
Procedure, shortened: as §2

[27] = tested on: HDQ-P1; remark: listed apart in the source
Procedure, shortened: as §2

[28] = tested on: MDA-MB-436; remark: listed apart in the source
Procedure, shortened: as §2

[29] = tested on: MFM-223; remark: listed apart in the source
Procedure, shortened: as §2

[30] = tested on: SK-BR-3; remark: listed apart in the source
Procedure, shortened: as §2

CN1CCN(c2ccc3nc(-c4c(N)c5c(F)cccc5[nH]c4=O)[nH]c3c2)CC1 [Dovitinib]
Details | normalised viability [%]
[1], 100 nM | 115
[2], 100 nM | 90.5
[3], 100 nM | 86.4
[4], 10 nM | 94.7
[5], 10 nM | 111
[6], 10 nM | 89.2
[7], 10 nM | 99.8
[8], 100 nM | 84.5
[9], 100 nM | 88.2
[10], 100 nM | 95.6
[11], 10 nM | 95.7
[12], 100 nM | 87
[13], 100 nM | 80.2
[14], 100 nM | 99.7
[15], 10 nM | 87.7
[16], 100 nM | 86.9
[17], 100 nM | 80.2
[18], 100 nM | 101
[19], 10 nM | 83
[19], 1000 nM | 97.1
[19], 10000 nM | 89
[20], 10 nM | 88.3
[20], 1000 nM | 91.8
[20], 10000 nM | 83.7
[21], 3 nM | 91.6
[21], 30 nM | 95.5
[21], 100 nM | 89.6
[22], 3 nM | 119
[22], 30 nM | 113
[22], 100 nM | 107
[23], 3 nM | 94.3
[23], 30 nM | 85.5
[23], 100 nM | 89.4
[24], 10 nM | 86.9
[24], 1000 nM | 87.9
[24], 10000 nM | 69.8
[25], 10 nM | 98
[25], 1000 nM | 98.8
[25], 10000 nM | 89
[26], 10 nM | 116
[26], 1000 nM | 80.7
[26], 10000 nM | 76.9
[27], 3 nM | 91
[27], 30 nM | 93.3
[27], 100 nM | 88.3
[28], 10 nM | 86.7
[28], 1000 nM | 97
[28], 10000 nM | 81.1
[29], 10 nM | 80.5
[29], 1000 nM | 56.4
[29], 10000 nM | 61
[30], 10 nM | 84.8
[30], 1000 nM | 94.8
[30], 10000 nM | 72.9

O=c1[nH]c(=O)n([C@H]2C[C@H](O)[C@@H](CO)O2)cc1F [Floxuridine]
Details | normalised viability [%]
[1], 100 nM | 117
[2], 100 nM | 93.4
[3], 100 nM | 66.2
[4], 10 nM | 99.8
[5], 10 nM | 91.8
[6], 10 nM | 93.1
[7], 10 nM | 114
[8], 100 nM | 101
[9], 100 nM | 97.2
[10], 100 nM | 84.5
[11], 10 nM | 107
[12], 100 nM | 85.8
[13], 100 nM | 97.4
[14], 100 nM | 72.6
[15], 10 nM | 98.5
[16], 100 nM | 51.9
[17], 100 nM | 92.6
[18], 100 nM | 53
[19], 10 nM | 96.5
[19], 1000 nM | 67.1
[19], 10000 nM | 44.8
[20], 10 nM | 94.4
[20], 1000 nM | 16.8
[20], 10000 nM | 21.1
[21], 3 nM | 97.6
[21], 30 nM | 54.4
[21], 100 nM | 52.8
[22], 3 nM | 108
[22], 30 nM | 64.4
[22], 100 nM | 46.6
[23], 3 nM | 107
[23], 30 nM | 107
[23], 100 nM | 69.5
[24], 10 nM | 97.5
[24], 1000 nM | 91.1
[24], 10000 nM | 61.6
[25], 10 nM | 86.9
[25], 1000 nM | 91.8
[25], 10000 nM | 81.9
[26], 10 nM | 78.3
[26], 1000 nM | 76
[26], 10000 nM | 42.1
[27], 3 nM | 111
[27], 30 nM | 94.8
[27], 100 nM | 80.8
[28], 10 nM | 88.9
[28], 1000 nM | 62.5
[28], 10000 nM | 44.2
[29], 10 nM | 97.1
[29], 1000 nM | 93.4
[29], 10000 nM | 55.1
[30], 10 nM | 94.5
[30], 1000 nM | 44.9
[30], 10000 nM | 24

O=c1[nH]cc(F)c(=O)[nH]1 [Fluorouracil]
Details | normalised viability [%]
[1], 100 nM | 116
[2], 100 nM | 107
[3], 100 nM | 111
[4], 10 nM | 108
[5], 10 nM | 105
[6], 10 nM | 94.7
[7], 10 nM | 97
[8], 100 nM | 97.7
[9], 100 nM | 102
[10], 100 nM | 104
[11], 10 nM | 103
[12], 100 nM | 115
[13], 100 nM | 106
[14], 100 nM | 89.1
[15], 10 nM | 116
[16], 100 nM | 104
[17], 100 nM | 96.5
[18], 100 nM | 87
[19], 10 nM | 101
[19], 1000 nM | 90.3
[19], 10000 nM | 74.2
[20], 10 nM | 114
[20], 1000 nM | 95.8
[20], 10000 nM | 54.9
[21], 3 nM | 111
[21], 30 nM | 109
[21], 100 nM | 103
[22], 3 nM | 105
[22], 30 nM | 100
[22], 100 nM | 92.9
[23], 3 nM | 120
[23], 30 nM | 103
[23], 100 nM | 85.6
[24], 10 nM | 99.5
[24], 1000 nM | 91
[24], 10000 nM | 64.9
[25], 10 nM | 102
[25], 1000 nM | 96.1
[25], 10000 nM | 76.9
[26], 10 nM | 90.6
[26], 1000 nM | 112
[26], 10000 nM | 75.3
[27], 3 nM | 105
[27], 30 nM | 114
[27], 100 nM | 99.9
[28], 10 nM | 103
[28], 1000 nM | 87.8
[28], 10000 nM | 73.5
[29], 10 nM | 106
[29], 1000 nM | 98.5
[29], 10000 nM | 94.3
[30], 10 nM | 108
[30], 1000 nM | 62.4
[30], 10000 nM | 43.1

C[C@@H]1C=C2C(=O)O[C@@H]3CC[C@H](C1)[C@]23O [Galiellalactone]
Details | normalised viability [%]
[1], 500 nM | 136
[2], 500 nM | 105
[3], 500 nM | 85.6
[4], 50 nM | 104
[5], 50 nM | 106
[6], 50 nM | 97.4
[7], 50 nM | 117
[8], 500 nM | 106
[9], 500 nM | 91.1
[10], 500 nM | 90.9
[11], 50 nM | 113
[12], 500 nM | 101
[13], 500 nM | 91.8
[14], 500 nM | 90.1
[15], 50 nM | 110
[16], 500 nM | 105
[17], 500 nM | 92.8
[18], 500 nM | 96.4
[19], 50 nM | 83.9
[19], 5000 nM | 59.9
[19], 50000 nM | 7.58
[20], 50 nM | 88.6
[20], 5000 nM | 89.9
[20], 50000 nM | 83.8
[21], 15 nM | 99.7
[21], 150 nM | 108
[21], 500 nM | 103
[22], 15 nM | 108
[22], 150 nM | 104
[22], 500 nM | 102
[23], 15 nM | 103
[23], 150 nM | 92.2
[23], 500 nM | 95.5
[24], 50 nM | 90.8
[24], 5000 nM | 104
[24], 50000 nM | 86.9
[25], 50 nM | 95.2
[25], 5000 nM | 89.8
[25], 50000 nM | 67.5
[26], 50 nM | 132
[26], 5000 nM | 79.4
[26], 50000 nM | 22.8
[27], 15 nM | 108
[27], 150 nM | 96
[27], 500 nM | 116
[28], 50 nM | 98.2
[28], 5000 nM | 76.6
[28], 50000 nM | 21.9
[29], 50 nM | 90.6
[29], 5000 nM | 95.5
[29], 50000 nM | 40.4
[30], 50 nM | 105
[30], 5000 nM | 85.2
[30], 50000 nM | 6.84
